We go through 19 compounds from patent US20250115576A1, “THERAPEUTIC COMPOUNDS AND METHODS OF USE THEREOF” (Genentech, Inc., priority 2018, published 2025).

Structures can show the parent of a compound that is named as a salt.

Sequence of hNav1.7 (Q15858 other isoform, or with tags, fused parts or gaps): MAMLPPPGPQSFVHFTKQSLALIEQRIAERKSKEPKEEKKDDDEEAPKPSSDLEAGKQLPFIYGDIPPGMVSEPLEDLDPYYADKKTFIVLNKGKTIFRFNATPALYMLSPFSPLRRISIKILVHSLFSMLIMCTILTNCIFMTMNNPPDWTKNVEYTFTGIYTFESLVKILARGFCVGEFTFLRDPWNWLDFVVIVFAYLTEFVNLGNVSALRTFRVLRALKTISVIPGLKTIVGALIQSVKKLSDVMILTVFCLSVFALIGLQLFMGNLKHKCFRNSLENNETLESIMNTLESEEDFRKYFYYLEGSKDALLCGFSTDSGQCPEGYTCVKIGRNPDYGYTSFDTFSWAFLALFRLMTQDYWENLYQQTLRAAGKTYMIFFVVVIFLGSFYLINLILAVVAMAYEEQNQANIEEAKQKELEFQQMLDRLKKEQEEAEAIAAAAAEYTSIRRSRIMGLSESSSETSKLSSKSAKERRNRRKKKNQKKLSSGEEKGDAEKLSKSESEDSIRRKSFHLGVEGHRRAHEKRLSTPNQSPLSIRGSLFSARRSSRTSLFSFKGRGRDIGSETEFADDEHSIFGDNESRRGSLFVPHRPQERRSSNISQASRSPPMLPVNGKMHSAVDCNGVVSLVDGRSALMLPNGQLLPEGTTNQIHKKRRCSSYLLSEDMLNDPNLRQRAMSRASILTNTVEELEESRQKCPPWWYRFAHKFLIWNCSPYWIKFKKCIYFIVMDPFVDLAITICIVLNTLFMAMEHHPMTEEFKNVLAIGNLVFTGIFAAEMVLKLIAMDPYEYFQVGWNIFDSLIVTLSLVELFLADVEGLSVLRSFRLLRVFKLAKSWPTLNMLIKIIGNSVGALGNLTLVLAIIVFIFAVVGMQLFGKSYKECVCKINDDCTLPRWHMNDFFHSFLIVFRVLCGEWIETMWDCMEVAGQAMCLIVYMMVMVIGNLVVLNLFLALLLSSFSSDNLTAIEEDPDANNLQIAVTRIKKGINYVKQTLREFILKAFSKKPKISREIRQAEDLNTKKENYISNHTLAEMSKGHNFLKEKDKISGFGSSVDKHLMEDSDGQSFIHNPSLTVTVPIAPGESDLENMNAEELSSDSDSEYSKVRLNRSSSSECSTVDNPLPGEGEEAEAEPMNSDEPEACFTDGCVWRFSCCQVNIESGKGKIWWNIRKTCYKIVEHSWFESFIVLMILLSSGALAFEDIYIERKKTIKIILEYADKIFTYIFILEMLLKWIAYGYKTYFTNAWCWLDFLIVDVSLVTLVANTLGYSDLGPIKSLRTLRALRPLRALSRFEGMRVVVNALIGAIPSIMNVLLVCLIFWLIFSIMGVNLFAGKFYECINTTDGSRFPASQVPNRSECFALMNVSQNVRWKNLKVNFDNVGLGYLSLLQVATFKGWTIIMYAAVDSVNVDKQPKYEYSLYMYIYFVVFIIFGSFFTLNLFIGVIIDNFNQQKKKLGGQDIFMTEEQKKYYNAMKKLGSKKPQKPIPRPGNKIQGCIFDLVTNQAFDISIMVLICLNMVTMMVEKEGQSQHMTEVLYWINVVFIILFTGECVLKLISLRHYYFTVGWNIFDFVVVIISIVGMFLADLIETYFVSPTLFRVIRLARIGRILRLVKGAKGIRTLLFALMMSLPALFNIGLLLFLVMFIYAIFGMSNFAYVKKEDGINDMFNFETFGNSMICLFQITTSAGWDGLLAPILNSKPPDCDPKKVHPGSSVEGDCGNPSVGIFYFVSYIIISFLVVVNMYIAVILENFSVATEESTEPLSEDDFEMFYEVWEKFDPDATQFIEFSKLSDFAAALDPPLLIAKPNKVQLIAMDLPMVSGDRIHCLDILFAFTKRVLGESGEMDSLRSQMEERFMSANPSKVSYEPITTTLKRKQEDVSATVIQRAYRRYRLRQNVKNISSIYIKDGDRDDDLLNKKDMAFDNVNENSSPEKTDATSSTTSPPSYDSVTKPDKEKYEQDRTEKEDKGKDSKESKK

The test deals with hNav1.7 (Homo sapiens (Human), UniProt Q15858). As to the kind of experiment: Patch voltage clamp electrophysiology (EP), Syncropatch 384PE, CHO cells stably expressing Nav1.7. The following applies: holding potential −50 mV, 7.5 min compound incubation, read-out: EP_SP hNav1.7 EVO IC50. Format: cell-based. From the text:
Example 64c. Electrophysiological Assay (EP) (In Vitro Assay)
Patch voltage clamp electrophysiology allows for the direct measurement and quantification of block of voltage-gated sodium channels (NaV's), and allows the determination of the time- and voltage-dependence of block which has been interpreted as differential binding to the resting, open, and inactivated states of the sodium channel (Hille, B., Journal of General Physiology (1977), 69: 497-515).
The following voltage clamp electrophysiology studies are performed on representative compounds using cells heterologously expressing Nav1.7 or Nav1.5 channels. cDNAs for Nav1.7 (NM_002977) and Nav1.5 (AC137587) are stably expressed in Chinese Hamstr Ovary (CHO) cells and CHL (Chinese Hamster Lung) cells respectively. Sodium currents are measured in the whole-cell configuration using Syncropatch 384PE (Nanlon Technologies, Germany). 1NPC®-384 chips with custom medium resistance and single hole mode are used. Internal solution consists of (in mM): […], 10 CsCl, 20 EGTA, and 10 Hepes (pH adjusted to 7.2); and external solution contains (in mM): 60 NMDG, 80 NaCl, 4 KCl, 1 MgCl2, 2 CaCl2, 2 D-Glucose monohydrate, 10 Hepes (pH adjusted to 7.4 with NaOH).
After system flushing, testing compounds are dissolved in external solution containing 0.1% Pluronic F-127. The chip is moved into the measuring head and the instrument primes the chip with external and internal solutions. 10 μl cells are added to the chip from a cell hotel, and a negative pressure of −50 mBar is applied to form a seal. Following treatment with seal enhancer solution and wash-off with external solution, negative pressure of −250 mbar is applied for 1 second to achieve the whole-cell configuration, followed by three washing steps in external solution. 20 μl of compounds is added to 40 μl in each well (1:3 dilution of compounds), and after mixing, 20 μl is removed so the volume is retained at 40 ul. After approximately 13 minutes recordings, 20 μl/well of 2 uM TTX, or 333 uM Tetracaine (for […]) is added to achieve full block.
For voltage protocol, an holding potential of −50 mV is applied during the whole experiment. A depolarizing step is applied to −10 mV for 10 ms, followed by a hyperpolarization step to −150 mV for 20 ms to allow channel recovery from inactivation. A second depolarizing step is applied from −150 mV to −10 mV for 10 ms, where currents are measured to derive blocking effects of compounds. Inhibition is determined based on 7.5 min of compound incubation.
In the case of `O=S(=O)(Nc1ccncn1)c1ccc(O[C@H]2CC[C@H](c3cccc(C(F)(F)F)c3)C[C@@H]2N2CCCCC2)nc1` [Example 26, 6-(((1S,2S,4S)-2-(piperidin-1-yl)-4-(3-(trifluoromethyl)phenyl)cyclohexyl)oxy)-N-(pyrimidin-4-yl)pyridine-3-sulfonamide], the IC50 is 1.16 nM.
In the case of `Cc1nc(O[C@H]2CC[C@H](c3cccc(OC(F)(F)F)c3)C[C@@H]2N(C)C)ccc1S(=O)(=O)Nc1ccncn1` [Example 28, 6-(((1S,2S,4S)-2-(Dimethylamino)-4-(3-(trifluoromethoxy)phenyl)cyclohexyl)oxy)-2-methyl-N-(pyrimidin-4-yl)pyridine-3-sulfonamide], the IC50 was 0.664 nM.
Regarding `Cc1nc(O[C@H]2CC[C@H](c3cccc(C(F)(F)F)c3)C[C@@H]2N2CCCC2)ccc1S(=O)(=O)Nc1ccncn1` [Example 29, 2-Methyl-N-(pyrimidin-4-yl)-6-(((1S,2S,4S)-2-(pyrrolidin-1-yl)-4-(3-(trifluoromethyl)phenyl)-cyclohexyl)oxy)pyridine-3-sulfonamide], the 50% inhibitory concentration (IC50) worked out at 5.62 nM.
For `Cc1nc(O[C@H]2CC[C@H](c3cccc(OC(F)(F)F)c3)C[C@@H]2N2CCCC2)ccc1S(=O)(=O)Nc1ccncn1` [Example 30, 2-Methyl-N-(pyrimidin-4-yl)-6-(((1S,2S,4S)-2-(pyrrolidin-1-yl)-4-(3-(trifluoromethoxy)phenyl)-cyclohexyl)oxy)pyridine-3-sulfonamide], the IC50 turned out to be 1.07 nM.
To `CN(C)[C@H]1C[C@@H](c2cccc(C(F)(F)F)c2)CC[C@@H]1Oc1cc(Cl)c(S(=O)(=O)Nc2ccncn2)cn1` [Example 31, 4-Chloro-6-(((1S,2S,4S)-2-(dimethylamino)-4-(3-(trifluoromethyl)phenyl)cyclohexyl)oxy)-N-(pyrimidin-4-yl)pyridine-3-sulfonamide] belongs 10 nM; to `Cc1cc(O[C@H]2CC[C@H](c3cccc(C(F)(F)F)c3)C[C@@H]2N(C)C)ncc1S(=O)(=O)Nc1ccncn1` [Example 32, 6-(((1S,2S,4S)-2-(Dimethylamino)-4-(3-(trifluoromethyl)phenyl)cyclohexyl)oxy)-4-methyl-N-(pyrimidin-4-yl)pyridine-3-sulfonamide], 37.1 nM.
As to `CCc1nc(O[C@H]2CC[C@H](c3cccc(C(F)(F)F)c3)C[C@@H]2N(C)C)ccc1S(=O)(=O)Nc1ccncn1` [Example 33, 6-(((1S,2S,4S)-2-(Dimethylamino)-4-(3-(trifluoromethyl)phenyl)cyclohexyl)oxy)-2-ethyl-N-(pyrimidin-4-yl)pyridine-3-sulfonamide], the IC50 was found to be 16.3 nM.
To `CN(C)[C@H]1C[C@@H](c2cccc(C(F)(F)F)c2)CC[C@@H]1Oc1ccc(S(=O)(=O)Nc2ccncn2)c(C2CC2)n1` [Example 34, 2-Cyclopropyl-6-(((1S,2S,4S)-2-(dimethylamino)-4-(3-(trifluoromethyl)phenyl)-cyclohexyl)oxy)-N-(pyrimidin-4-yl)pyridine-3-sulfonamide] belongs 154 nM.
In the case of `Cc1nc(O[C@H]2CC[C@H](c3cccc(C(F)(F)F)c3)C[C@@H]2N(C)C2CCC2)ccc1S(=O)(=O)Nc1ccncn1` [Example 35, 6-(((1S,2S,4S)-2-(Cyclobutyl(methyl)amino)-4-(3-(trifluoromethyl)phenyl)cyclohexyl)oxy)-2-methyl-N-(pyrimidin-4-yl)pyridine-3-sulfonamide] it was 0.597 nM; in that of `Cc1nc(O[C@H]2CC[C@H](c3ccc(Cl)c(C(F)(F)F)c3)C[C@@H]2N(C)C)ccc1S(=O)(=O)Nc1ccncn1` [Example 36, 6-(((1S,2S,4S)-4-(4-chloro-3-(trifluoromethyl)phenyl)-2-(dimethylamino)cyclohexyl)oxy)-2-methyl-N-(pyrimidin-4-yl)pyridine-3-sulfonamide], 0.247 nM.
With `Cc1nc(O[C@H]2CC[C@H](c3cc(C(F)(F)F)ccc3Cl)C[C@@H]2N(C)C)ccc1S(=O)(=O)Nc1ccncn1` [Example 38, 6-(((1S,2S,4S)-4-(2-chloro-5-(trifluoromethyl)phenyl)-2-(dimethylamino)cyclohexyl)oxy)-2-methyl-N-(pyrimidin-4-yl)pyridine-3-sulfonamide], the IC50 came to 0.409 nM.
In the case of `Cc1nc(O[C@H]2CC[C@H](c3cc(Cl)ccc3Cl)C[C@@H]2N(C)C)ccc1S(=O)(=O)Nc1ccncn1` [Example 39, 6-(((1S,2S,4S)-4-(2,5-dichlorophenyl)-2-(dimethylamino)cyclohexyl)oxy)-2-methyl-N-(pyrimidin-4-yl)pyridine-3-sulfonamide formate] it was 0.645 nM; in that of `O=S(=O)(Nc1ccncn1)c1cnc(O[C@H]2CC[C@H](c3cccc(C(F)(F)F)n3)C[C@@H]2N2CCCC2)c(Cl)c1` [Example 40, 5-chloro-N-(pyrimidin-4-yl)-6-(((1S,2S,4S)-2-(pyrrolidin-1-yl)-4-(6-(trifluoromethyl)pyridin-2-yl)cyclohexyl)oxy)pyridine-3-sulfonamide], 3.86 nM.
In the case of `Cc1nc(O[C@H]2CC[C@H](c3cc(F)cc(C(F)(F)F)c3)C[C@@H]2N(C)C)ccc1S(=O)(=O)Nc1ccncn1` [Example 42, 6-(((1S,2S,4S)-2-(Dimethylamino)-4-(3-fluoro-5-(trifluoromethyl)phenyl)cyclohexyl)oxy)-2-methyl-N-(pyrimidin-4-yl)pyridine-3-sulfonamide], the IC50 was found to be 0.646 nM.
Consider `Cc1nc(O[C@H]2CC[C@H](c3cc(C(F)(F)F)ccc3F)C[C@@H]2N(C)C)ccc1S(=O)(=O)Nc1ccncn1` [Example 43, 6-(((1S,2S,4S)-2-(Dimethylamino)-4-(2-fluoro-5-(trifluoromethyl)phenyl)cyclohexyl)oxy)-2-methyl-N-(pyrimidin-4-yl)pyridine-3-sulfonamide formate], for which the IC50 amounted to 0.687 nM.
Turning to `CN(C)[C@H]1C[C@@H](c2cc(C(F)(F)F)ccc2F)CC[C@@H]1Oc1ccc(S(=O)(=O)Nc2ccncn2)c(Cl)n1` [Example 44, 2-Chloro-6-(((1S,2S,4S)-2-(dimethylamino)-4-(2-fluoro-5-(trifluoromethyl)phenyl)-cyclohexyl)oxy)-N-(pyrimidin-4-yl)pyridine-3-sulfonamide formate], the IC50 turned out to be 1.81 nM.
For `Cc1nc(O[C@H]2CC[C@H](c3ccc(F)c(C(F)(F)F)c3)C[C@@H]2N(C)C)ccc1S(=O)(=O)Nc1ccncn1` [Example 45, 6-(((1S,2S,4S)-2-(Dimethylamino)-4-(4-fluoro-3-(trifluoromethyl)phenyl)cyclohexyl)oxy)-2-methyl-N-(pyrimidin-4-yl)pyridine-3-sulfonamide formate], the IC50 is 0.473 nM.
Take `Cc1nc(O[C@H]2CC[C@H](c3cccc(C(F)(F)F)c3F)C[C@@H]2N(C)C)ccc1S(=O)(=O)Nc1ccncn1` [Example 46, 6-(((1S,2S,4S)-2-(Dimethylamino)-4-(2-fluoro-3-(trifluoromethyl)phenyl)cyclohexyl)oxy)-2-methyl-N-(pyrimidin-4-yl)pyridine-3-sulfonamide formate]: the IC50 came to 0.917 nM.
`CCN(CC)[C@H]1C[C@@H](c2cccc(C(F)(F)F)c2)CC[C@@H]1Oc1ccc(S(=O)(=O)Nc2ccncn2)c(C)n1` [Example 47, 6-(((1S,2S,4S)-2-(Diethylamino)-4-(3-(trifluoromethyl)phenyl)cyclohexyl)oxy)-2-methyl-N-(pyrimidin-4-yl)pyridine-3-sulfonamide]: the IC50 is 1.73 nM.

As usually defined, the IC50 is the concentration that gives 50% inhibition.
